Source: PMC6522510 (Nature Communications, 2019)
Structures can show the parent of a compound that is named as a salt. Where two headings read alike, the source gives them in different places.

What was measured:
Design in all cases: species or system AML cell lines (8); Primary HTS, single concentration about 10 uM, Cell Titer Glo viability; log10 luminescence, per cent inhibition relative to cycloheximide control
Conditions in all cases: 72 h, relative to cycloheximide control, log10 luminescence, inhibitor
[1] = test system: CHRF288-11
[2] = test system: CMK
[3] = test system: CMS
[4] = test system: M07e
[5] = test system: ML-2
[6] = test system: MOLM-13
[7] = test system: MV4-11
[8] = test system: U937

## CO[C@@]1(NC(=O)Cc2cccs2)C(=O)N2C(C(=O)O)=C(COC(N)=O)CS[C@@H]21 [SJ000285599-4, CEFOXITIN SODIUM]
[1]
  CHRF288-11 %inh: -4.487%
[2]
  CMK %inh: 1.325%
[3]
  CMS %inh: -1.051%
[4]
  M07e %inh: -3.67%
[5]
  ML-2 %inh: -2.877%
[6]
  MOLM-13 %inh: 3.83%
[7]
  MV4-11 %inh: -5.193%
[8]
  U937 %inh: -1.811%

## CCCCNC(=O)NS(=O)(=O)c1ccc(C)cc1 [SJ000285613-7, TOLBUTAMIDE]
[1]
  CHRF288-11 %inh: -1.378%
[2]
  CMK %inh: -3.705%
[3]
  CMS %inh: 0.8795%
[4]
  M07e %inh: -0.3777%
[5]
  ML-2 %inh: 1.608%
[6]
  MOLM-13 %inh: -1.699%
[7]
  MV4-11 %inh: 0.676%
[8]
  U937 %inh: -1.884%

## CC(C)[N+](C)(CCC(C(N)=O)(c1ccccc1)c1ccccc1)C(C)C [SJ000285636-4, ISOPROPAMIDE IODIDE]
[1]
  CHRF288-11 %inh: 8.188%
[2]
  CMK %inh: -6.961%
[3]
  CMS %inh: -2.262%
[4]
  M07e %inh: 2.458%
[5]
  ML-2 %inh: -0.5962%
[6]
  MOLM-13 %inh: 19.61%
[7]
  MV4-11 %inh: -0.6779%
[8]
  U937 %inh: -1.123%

## COc1cccc(OC)c1C(=O)N[C@@H]1C(=O)N2[C@@H]1SC(C)(C)[C@@H]2C(=O)O [SJ000285650-3, METHICILLIN SODIUM]
[1]
  CHRF288-11 %inh: 120.3%
[2]
  CMK %inh: -1.148%
[3]
  CMS %inh: -3.883%
[4]
  M07e %inh: -0.3426%
[5]
  ML-2 %inh: -0.07595%
[6]
  MOLM-13 %inh: -0.5712%
[7]
  MV4-11 %inh: -1.181%
[8]
  U937 %inh: 1.642%

## CN(C)[C@@H]1C(=O)C(C(N)=O)=C(O)[C@@]2(O)C(=O)C3=C(O)c4c(O)cccc4[C@@](C)(O)[C@H]3[C@H](O)[C@@H]12 [SJ000285682-4, OXYTETRACYCLINE | OXYTETRACYCLINE DIHYDRATE | OXYTETRACYCLINE HYDROCHLORIDE | OXYTETRACYCLINE (TERRAMYCIN)]
[1]
  CHRF288-11 %inh: 25.02%
[2]
  CMK %inh: -2.364%
[3]
  CMS %inh: 0.1991%
[4]
  M07e %inh: -0.1554%
[5]
  ML-2 %inh: 0.3169%
[6]
  MOLM-13 %inh: 3.957%
[7]
  MV4-11 %inh: -1.23%
[8]
  U937 %inh: 0.3352%

## Cn1c(=O)c2c(ncn2C)n(C)c1=O [SJ000285694-6, CAFFEINE]
[1]
  CHRF288-11 %inh: -2.164%
[2]
  CMK %inh: -3.637%
[3]
  CMS %inh: 0.8967%
[4]
  M07e %inh: 4.484%
[5]
  ML-2 %inh: 0.4974%
[6]
  MOLM-13 %inh: -2.617%
[7]
  MV4-11 %inh: -1.738%
[8]
  U937 %inh: -2.594%

## CCn1nc(C(=O)O)c(=O)c2cc3c(cc21)OCO3 [SJ000285711-7, CINOXACIN]
[1]
  CHRF288-11 %inh: 0.6656%
[2]
  CMK %inh: 0.4853%
[3]
  CMS %inh: 0.852%
[4]
  M07e %inh: 5.282%
[5]
  ML-2 %inh: -1.975%
[6]
  MOLM-13 %inh: 1.821%
[7]
  MV4-11 %inh: 3.259%
[8]
  U937 %inh: 2.404%

## CN(C)/N=N/c1[nH]cnc1C(N)=O [SJ000285718-4, DACARBAZINE]
[1]
  CHRF288-11 %inh: 9.396%
[2]
  CMK %inh: 31.68%
[3]
  CMS %inh: -1.6%
[4]
  M07e %inh: -1.918%
[5]
  ML-2 %inh: -0.5509%
[6]
  MOLM-13 %inh: 31.43%
[7]
  MV4-11 %inh: 4.433%
[8]
  U937 %inh: 1.118%

## C#C[C@]1(O)CC[C@H]2[C@@H]3CCC4=Cc5oncc5C[C@]4(C)[C@H]3CC[C@@]21C [SJ000285723-7, DANAZOL]
[1]
  CHRF288-11 %inh: 3.76%
[2]
  CMK %inh: -0.5732%
[3]
  CMS %inh: -0.3914%
[4]
  M07e %inh: 0.05908%
[5]
  ML-2 %inh: 0.4162%
[6]
  MOLM-13 %inh: 13.86%
[7]
  MV4-11 %inh: 3.859%
[8]
  U937 %inh: 4.655%

## CC(=O)N(O)CCCCCNC(=O)CCC(=O)N(O)CCCCCNC(=O)CCC(=O)N(O)CCCCCN [SJ000285725-5, DEFEROXAMINE MESYLATE]
[1]; CHRF288-11 %inh, 10 µM
  CHRF288-11 %inh: 11.75%
[2]; CMK %inh, 10 µM
  CMK %inh: 30.74%
[3]
  CMS %inh: 49.53%
[4]; M07e %inh, 10 µM
  M07e %inh: 9.207%
[5]; ML-2 %inh, 10 µM
  ML-2 %inh: 13.98%
[6]; MOLM-13 %inh, 10 µM
  MOLM-13 %inh: 54.77%
[7]; MV4-11 %inh, 10 µM
  MV4-11 %inh: 0.1216%
[8]
  U937 %inh: 32.98%

## C/C=C(/C(=C/C)c1ccc(O)cc1)c1ccc(O)cc1 [SJ000285735-4, DIENESTROL]
[1]; CHRF288-11 %inh, 10 µM
  CHRF288-11 %inh: -2.974%
[2]; CMK %inh, 10 µM
  CMK %inh: 4.084%
[3]; CMS %inh, 10 µM
  CMS %inh: -3.971%
[4]; M07e %inh, 10 µM
  M07e %inh: -0.9445%
[5]; ML-2 %inh, 10 µM
  ML-2 %inh: 0.7684%
[6]; MOLM-13 %inh, 10 µM
  MOLM-13 %inh: 3.801%
[7]; MV4-11 %inh, 10 µM
  MV4-11 %inh: -1.794%
[8]; U937 %inh, 10 µM
  U937 %inh: 2.437%

## C/C=C(/C(=C/C)c1ccc(O)cc1)c1ccc(O)cc1 [SJ000285735-5, DIENESTROL]
[1]; CHRF288-11 %inh, 10 µM
  CHRF288-11 %inh: -2.147%
[2]; CMK %inh, 10 µM
  CMK %inh: 33.82%
[3]; CMS %inh, 10 µM
  CMS %inh: -2.72%
[4]; M07e %inh, 10 µM
  M07e %inh: 2.558%
[5]; ML-2 %inh, 10 µM
  ML-2 %inh: 1.532%
[6]; MOLM-13 %inh, 10 µM
  MOLM-13 %inh: 17.84%
[7]; MV4-11 %inh, 10 µM
  MV4-11 %inh: 1.913%
[8]; U937 %inh, 10 µM
  U937 %inh: 2.402%

## CCN(CC)C(=O)N1CCN(C)CC1 [SJ000285736-4, DIETHYLCARBAMAZINE CITRATE]
[1]
  CHRF288-11 %inh: -2.146%
[2]
  CMK %inh: 2.446%
[3]
  CMS %inh: -4.008%
[4]
  M07e %inh: -3.005%
[5]
  ML-2 %inh: -1.11%
[6]
  MOLM-13 %inh: 1.95%
[7]
  MV4-11 %inh: 2.119%
[8]
  U937 %inh: 2.79%

## O=C(O)c1cc(-c2ccc(F)cc2F)ccc1O [SJ000285738-4, DIFLUNISAL]
[1]
  CHRF288-11 %inh: -4.662%
[2]
  CMK %inh: -0.9892%
[3]
  CMS %inh: 0.6702%
[4]
  M07e %inh: 2.006%
[5]
  ML-2 %inh: -0.2454%
[6]
  MOLM-13 %inh: 1.208%
[7]
  MV4-11 %inh: 3.937%
[8]
  U937 %inh: 4.296%

## C[C@H]1O[C@@H](O[C@H]2[C@@H](O)C[C@H](O[C@H]3[C@@H](O)C[C@H](O[C@H]4CC[C@@]5(C)[C@H](CC[C@@H]6[C@@H]5C[C@@H](O)[C@]5(C)[C@@H](C7=CC(=O)OC7)CC[C@]65O)C4)O[C@@H]3C)O[C@@H]2C)C[C@H](O)[C@@H]1O [SJ000285739-5, DIGOXIN]
[1]; CHRF288-11 %inh, 10 µM
  CHRF288-11 %inh: 126.2%
[2]; CMK %inh, 10 µM
  CMK %inh: 94.03%
[3]; CMS %inh, 10 µM
  CMS %inh: 110.4%
[4]; M07e %inh, 10 µM
  M07e %inh: 115.6%
[5]; ML-2 %inh, 10 µM
  ML-2 %inh: 70.4%
[6]; MOLM-13 %inh, 10 µM
  MOLM-13 %inh: 106.4%
[7]; MV4-11 %inh, 10 µM
  MV4-11 %inh: 85.53%
[8]; U937 %inh, 10 µM
  U937 %inh: 89.45%

## C[C@H]1O[C@@H](O[C@H]2[C@@H](O)C[C@H](O[C@H]3[C@@H](O)C[C@H](O[C@H]4CC[C@@]5(C)[C@H](CC[C@@H]6[C@@H]5C[C@@H](O)[C@]5(C)[C@@H](C7=CC(=O)OC7)CC[C@]65O)C4)O[C@@H]3C)O[C@@H]2C)C[C@H](O)[C@@H]1O [SJ000285739-6, DIGOXIN]
[1]; CHRF288-11 %inh, 10 µM
  CHRF288-11 %inh: 118.6%
[2]; CMK %inh, 10 µM
  CMK %inh: 86.52%
[3]; CMS %inh, 10 µM
  CMS %inh: 96.75%
[4]; M07e %inh, 10 µM
  M07e %inh: 102.6%
[5]; ML-2 %inh, 10 µM
  ML-2 %inh: 63.97%
[6]; MOLM-13 %inh, 10 µM
  MOLM-13 %inh: 91.77%
[7]; MV4-11 %inh, 10 µM
  MV4-11 %inh: 80.5%
[8]; U937 %inh, 10 µM
  U937 %inh: 81.18%

## CN(C)CCOC(C)(c1ccccc1)c1ccccn1 (stereo not shown) [SJ000285751-7, DOXYLAMINE SUCCINATE]
[1]
  CHRF288-11 %inh: 11.69%
[2]
  CMK %inh: -1.167%
[3]
  CMS %inh: -0.1312%
[4]
  M07e %inh: 1.23%
[5]
  ML-2 %inh: -0.5397%
[6]
  MOLM-13 %inh: 4.161%
[7]
  MV4-11 %inh: -5.123%
[8]
  U937 %inh: -1.083%

## C[C@]12CC[C@@H]3c4ccc(O)cc4CC[C@H]3[C@@H]1CCC2=O [SJ000285760-7, ESTRONE]
[1]; CHRF288-11 %inh, 10 µM
  CHRF288-11 %inh: -1.204%
[2]; CMK %inh, 10 µM
  CMK %inh: 0.6093%
[3]; CMS %inh, 10 µM
  CMS %inh: 0.8051%
[4]; M07e %inh, 10 µM
  M07e %inh: 1.639%
[5]; ML-2 %inh, 10 µM
  ML-2 %inh: 0.07519%
[6]; MOLM-13 %inh, 10 µM
  MOLM-13 %inh: -0.4054%
[7]; MV4-11 %inh, 10 µM
  MV4-11 %inh: 2.184%
[8]; U937 %inh, 10 µM
  U937 %inh: 0.9734%

## C[C@]12CC[C@@H]3c4ccc(O)cc4CC[C@H]3[C@@H]1CCC2=O [SJ000285760-8, ESTRONE]
[1]; CHRF288-11 %inh, 10 µM
  CHRF288-11 %inh: 3.613%
[2]; CMK %inh, 10 µM
  CMK %inh: -1.298%
[3]; CMS %inh, 10 µM
  CMS %inh: -1.181%
[4]; M07e %inh, 10 µM
  M07e %inh: 2.553%
[5]; ML-2 %inh, 10 µM
  ML-2 %inh: 0.7014%
[6]; MOLM-13 %inh, 10 µM
  MOLM-13 %inh: -0.7843%
[7]; MV4-11 %inh, 10 µM
  MV4-11 %inh: 1.151%
[8]; U937 %inh, 10 µM
  U937 %inh: -0.6937%

## C=C(CC)C(=O)c1ccc(OCC(=O)O)c(Cl)c1Cl [SJ000285761-4, ETHACRYNIC ACID]
[1]
  CHRF288-11 %inh: 13.52%
[2]
  CMK %inh: 27.12%
[3]
  CMS %inh: -0.1029%
[4]
  M07e %inh: 4.659%
[5]
  ML-2 %inh: 6.312%
[6]
  MOLM-13 %inh: 7.494%
[7]
  MV4-11 %inh: 1.71%
[8]
  U937 %inh: 4.395%
